In patent publication US20240261224A1, “FORMULATION OF A PAN-JAK INHIBITOR” (KINASET THERAPEUTICS, INC., priority 2022, published 2024):
Several values for one entry are separate records, joined by “and”; a condition that tells them apart may be missing. Equal values may be shown once.

What was measured:
serum eosinophil count = assay: Phase 1 Part 3 serum (whole blood) differential eosinophil count; type: in vivo, human; settings: 4 mg BID
Description: Whole blood hematology samples were collected prior to dosing in all patients at Day 1 (baseline) and on Day 10. Parameters including whole blood absolute and percent differential eosinophil count were determined and the resultant data was used to determine change from baseline, mean change from baseline, and mean placebo-corrected change from baseline (Compound I vs placebo).

[1] = APSD, MMAD, FPM and FPF determination (NGI, 90 L/min); type: physicochemical; settings: for Fine particle mass (≤5 μm): in µg (unit assumed)
Description: Cup coating agent was prepared by mixing 150 mL of a mixture of Brij® 35, ethanol, and glycerol with 850 ml of ethanol.
The cup coating agent was prepared, and the NGI was assembled. The collection cups were then coated with cup coating agent and then proceeded to dry. A PALL® A/E 76 mm filter was placed into the back-up filter and attached to the NGI. Approximately 15 mL of diluent was added into the pre-separator insert. The flow rate was set to 90 L/min and the capsule was pierced. One dose was discharged into the NGI by initiating the time-controlled solenoid valve for 2.70 seconds. Sample diluent was added (10 mL for 0.2 mg and 2.0 mg doses and 20 mL for 4.0 mg doses), and the collection cups were agitated on the NGI Gentle Rocker for 10 minutes. The induction port was added 40 mL of sample diluent and was shaken for 1 minute. The pre-separator was added 50 mL of sample diluent and was shaken for 1 minute. The back-up filter was transferred to a crystallizing dish with 20 mL of sample diluent and was then sonicated for 5 minutes. The capsule from each determination was then transferred to a 20 mL volumetric flask and sample diluent was added. The suspension was then shaken and sonicated until fully dissolved. The resulting solution equilibrated under ambient conditions and was then made up to volume. Each Monodose RS01 was placed into an individual plastic bag and 20 mL of recovery solution was added. The bag was shaken by hand for 1 minute and filtered prior to HPLC analysis.

TYK2 = TYK2 (Homo sapiens, UniProt P29597); settings: cited from earlier work
TYK2, sequence (P29597 whole entry): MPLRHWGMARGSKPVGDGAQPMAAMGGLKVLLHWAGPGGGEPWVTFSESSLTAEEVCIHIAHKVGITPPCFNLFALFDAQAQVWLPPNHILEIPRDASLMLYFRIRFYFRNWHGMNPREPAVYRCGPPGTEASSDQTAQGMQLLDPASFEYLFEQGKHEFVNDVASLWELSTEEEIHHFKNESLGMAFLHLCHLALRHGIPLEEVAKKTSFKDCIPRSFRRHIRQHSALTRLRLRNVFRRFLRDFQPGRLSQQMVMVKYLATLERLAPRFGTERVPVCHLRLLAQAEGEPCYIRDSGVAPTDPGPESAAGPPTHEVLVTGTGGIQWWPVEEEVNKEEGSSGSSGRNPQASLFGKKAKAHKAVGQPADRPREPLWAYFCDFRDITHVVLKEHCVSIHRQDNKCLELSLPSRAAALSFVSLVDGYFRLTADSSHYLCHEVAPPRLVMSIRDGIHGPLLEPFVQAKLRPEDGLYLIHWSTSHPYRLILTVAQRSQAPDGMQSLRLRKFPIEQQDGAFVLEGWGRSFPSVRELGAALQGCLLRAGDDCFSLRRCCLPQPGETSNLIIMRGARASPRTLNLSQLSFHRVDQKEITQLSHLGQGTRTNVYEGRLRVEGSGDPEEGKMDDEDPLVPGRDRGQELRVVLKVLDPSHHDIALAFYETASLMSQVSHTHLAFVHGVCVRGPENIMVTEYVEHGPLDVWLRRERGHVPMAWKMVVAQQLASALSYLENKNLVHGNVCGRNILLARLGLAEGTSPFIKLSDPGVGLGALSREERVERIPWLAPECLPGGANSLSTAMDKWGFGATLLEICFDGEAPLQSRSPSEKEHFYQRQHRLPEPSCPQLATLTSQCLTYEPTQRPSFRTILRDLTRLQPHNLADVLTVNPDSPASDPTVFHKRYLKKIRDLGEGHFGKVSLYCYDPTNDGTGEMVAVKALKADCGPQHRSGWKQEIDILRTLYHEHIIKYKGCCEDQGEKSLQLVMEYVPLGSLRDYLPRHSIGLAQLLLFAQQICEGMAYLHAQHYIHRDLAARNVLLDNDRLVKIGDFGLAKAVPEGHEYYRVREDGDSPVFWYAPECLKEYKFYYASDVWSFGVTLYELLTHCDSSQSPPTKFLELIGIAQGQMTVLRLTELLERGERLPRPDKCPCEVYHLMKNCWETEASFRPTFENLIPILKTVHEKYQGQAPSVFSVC

[2] = Margin of safety study versus 13-wk NHP NOAEL; type: in vivo
From the text: Results from the margin of safety study of lactose/MgSt-based formulations of Compound I are shown below in Table 17.

[3] = Day 10, Mean of active subjects (n = 6)
[4] = Day 10, individual active subjects 13026, 13027, 13038, 13073, 13095, 13097 (c1-c6)
[5] = 2.0 mg capsule, 12 months 30/65
[6] = 2.0 mg capsule, 18 months 30/65
[7] = 2.0 mg capsule, 24 months 30/65
[8] = 4.0 mg capsule, 12 months 30/65
[9] = 4.0 mg BID vs 13-week NHP study

## Cn1c(=O)n([C@H]2CCCN(C(=O)CC#N)C2)c2nc(-c3cnn4ccccc34)ccc21 [Compound I, (S)-3-(3-(1-methyl-2-oxo-5-(pyrazolo[1,5-a]pyridine-3-yl)-1H-imidazo[4,5-b]pyridine-3(2H)-yl)piperidin-1-yl)-3-oxopropanenitrile]
Serum eosinophil count; Day 10 (5/6)
  Active subjects with improvements (decreases) from baseline in whole blood eosinophil count: 83%
Serum eosinophil count; [3]
  Serum absolute differential eosinophil count, % Change from screening: −29%
  Serum absolute differential eosinophil count, Change from Day 1 pre-dose: −0.14 cells 10^9/L
Serum eosinophil count; Day 10, active (n = 6) vs placebo (n = 2)
  Serum absolute differential eosinophil count, Mean placebo-corrected change: −0.11 cells 10^9/L
Serum eosinophil count; [4]
  Serum absolute differential eosinophil count, % Change from screening: −45% and +54% and −43% and −4% and −32% and −74%
  Serum absolute differential eosinophil count, Change from Day 1 pre-dose: −0.30 cells 10^9/L and 0.13 cells 10^9/L and −0.13 cells 10^9/L and −0.03 cells 10^9/L and −0.14 cells 10^9/L and −0.34 cells 10^9/L
Serum eosinophil count; Mean of active subjects (n = 6)
  Serum absolute differential eosinophil count, Day 10 level: 0.34 cells 10^9/L
Serum eosinophil count; individual active subjects 13026, 13027, 13038, 13073, 13095, 13097 (c1-c6)
  Serum absolute differential eosinophil count, Day 10 level: 0.36 cells 10^9/L and 0.37 cells 10^9/L and 0.17 cells 10^9/L and 0.74 cells 10^9/L and 0.30 cells 10^9/L and 0.12 cells 10^9/L
[1]; 2.0 mg and 4.0 mg formulations aerosolized, Tables 11 and 12
  MMAD: 1.8-2.0 μm
[1]; 2.0 mg and 4.0 mg formulations, Tables 11 and 12, up to 24 months
  FPF: 73-78%
[1]; 2.0 mg capsule, 1 month 30/65
  FPF % (FPM/Impactor dose): 75.4%
  MMAD: 2.0 μm
  Fine particle mass (≤5 μm): 1143.6
[1]; 2.0 mg capsule, 1 month 40/75
  FPF % (FPM/Impactor dose): 75.9%
  MMAD: 1.9 μm
  Fine particle mass (≤5 μm): 1046.6
[1]; 2.0 mg capsule, 3 months 30/65
  FPF % (FPM/Impactor dose): 77.2%
  MMAD: 1.9 μm
  Fine particle mass (≤5 μm): 1096.5
[1]; 2.0 mg capsule, 3 months 40/75
  FPF % (FPM/Impactor dose): 77.2%
  MMAD: 1.8 μm
  Fine particle mass (≤5 μm): 1090.9
[1]; 2.0 mg capsule, 6 months 30/65
  FPF % (FPM/Impactor dose): 74.9%
  MMAD: 1.9 μm
  Fine particle mass (≤5 μm): 1074.3
[1]; 2.0 mg capsule, 6 months 40/75
  FPF % (FPM/Impactor dose): 74.7%
  MMAD: 1.9 μm
  Fine particle mass (≤5 μm): 1069.6
[1]; 2.0 mg capsule, 9 months 30/65
  FPF % (FPM/Impactor dose): 76.6%
  MMAD: 1.9 μm
  Fine particle mass (≤5 μm): 1075.9
[1]; [5]
  FPF % (FPM/Impactor dose): 77.3%
  MMAD: 1.9 μm
  Fine particle mass (≤5 μm): 1098.4
[1]; [6]
  FPF % (FPM/Impactor dose): 77.0%
  MMAD: 1.9 μm
  Fine particle mass (≤5 μm): 1162.7
[1]; [7]
  FPF % (FPM/Impactor dose): 78.0%
  MMAD: 2.0 μm
  Fine particle mass (≤5 μm): 1083.1
[1]; 2.0 mg capsule, Release
  FPF % (FPM/Impactor dose): 73.5%
  MMAD: 2.0 μm
  Fine particle mass (≤5 μm): 1006.7
[1]; 4.0 mg capsule, 1 month 30/65
  FPF % (FPM/Impactor dose): 75.1%
  MMAD: 1.8 μm
  Fine particle mass (≤5 μm): 2181.6
[1]; 4.0 mg capsule, 1 month 40/75
  FPF % (FPM/Impactor dose): 73.6%
  MMAD: 1.9 μm
  Fine particle mass (≤5 μm): 2130.4
[1]; 4.0 mg capsule, 3 months 30/65
  FPF % (FPM/Impactor dose): 75.4%
  MMAD: 1.8 μm
  Fine particle mass (≤5 μm): 2167.8
[1]; 4.0 mg capsule, 3 months 40/75
  FPF % (FPM/Impactor dose): 72.9%
  MMAD: 1.9 μm
  Fine particle mass (≤5 μm): 2059.2
[1]; 4.0 mg capsule, 6 months 30/65
  FPF % (FPM/Impactor dose): 73.6%
  MMAD: 1.9 μm
  Fine particle mass (≤5 μm): 2098.3
[1]; 4.0 mg capsule, 6 months 40/75
  FPF % (FPM/Impactor dose): 74%
  MMAD: 1.8 μm
  Fine particle mass (≤5 μm): 2090
[1]; 4.0 mg capsule, 9 months 30/65
  FPF % (FPM/Impactor dose): 74%
  MMAD: 1.8 μm
  Fine particle mass (≤5 μm): 2116.2
[1]; [8]
  FPF % (FPM/Impactor dose): 76.5%
  MMAD: 1.9 μm
  Fine particle mass (≤5 μm): 2182.2
[1]; 4.0 mg capsule, 18 months
  FPF % (FPM/Impactor dose): 75.4%
  MMAD: 1.9 μm
  Fine particle mass (≤5 μm): 2254.8
[1]; 4.0 mg capsule, 24 months
  FPF % (FPM/Impactor dose): 76.7%
  MMAD: 1.9 μm
  Fine particle mass (≤5 μm): 2201.8
[1]; 4.0 mg capsule, Release
  FPF % (FPM/Impactor dose): 75.3%
  MMAD: 1.9 μm
  Fine particle mass (≤5 μm): 2157.0
TYK2
  Inhibition of TYK2: potent inhibitor
[2]; [9]
  MoS versus inhalation toxicology study NOAELs, Lung exposure (mg/g lung): 50
  MoS versus inhalation toxicology study NOAELs, Plasma (group mean AUC0-24): 3.2
[2]; 4.0 mg BID vs 13-wk NHP NOAEL
  Group mean AUC0-24 MoS (Phase 1 clinical study versus inhalation tox study NOAELs): 3.2
[2]; 4.0 mg BID vs 13-wk NHP NOAEL, adjusted for respirability assuming 10%, 25% and 100% lung deposition in rat, NHP and human
  Lung dose of Compound I (mg/g) MoS: 50
